# Source: patent US9434743B2, “Indazole derivatives” (TAKEDA PHARMACEUTICAL COMPANY LIMITED, priority 2012, dated 2016)
# What was measured:
# [1] = cited from earlier work
# angiogenesis = details: cited from earlier work
# human MetAP2 enzyme [2] = target: T1, human MetAP2 enzyme (Homo sapiens, UniProt P50579); experiment: MetAP2 enzyme assay, enzyme complexed with manganese ions; details: MetAP2 Mn pIC50, MetAP2 enzyme complexed with manganese ions; Met-AMC substrate at Km
# human MetAP2 enzyme [3] = target: T1, human MetAP2 enzyme; experiment: MetAP2 enzyme assay, enzyme complexed with cobalt ions; details: MetAP2 Co pIC50, MetAP2 enzyme complexed with cobalt ions; Met-AMC substrate at Km
# T1 sequence (P50579 whole entry): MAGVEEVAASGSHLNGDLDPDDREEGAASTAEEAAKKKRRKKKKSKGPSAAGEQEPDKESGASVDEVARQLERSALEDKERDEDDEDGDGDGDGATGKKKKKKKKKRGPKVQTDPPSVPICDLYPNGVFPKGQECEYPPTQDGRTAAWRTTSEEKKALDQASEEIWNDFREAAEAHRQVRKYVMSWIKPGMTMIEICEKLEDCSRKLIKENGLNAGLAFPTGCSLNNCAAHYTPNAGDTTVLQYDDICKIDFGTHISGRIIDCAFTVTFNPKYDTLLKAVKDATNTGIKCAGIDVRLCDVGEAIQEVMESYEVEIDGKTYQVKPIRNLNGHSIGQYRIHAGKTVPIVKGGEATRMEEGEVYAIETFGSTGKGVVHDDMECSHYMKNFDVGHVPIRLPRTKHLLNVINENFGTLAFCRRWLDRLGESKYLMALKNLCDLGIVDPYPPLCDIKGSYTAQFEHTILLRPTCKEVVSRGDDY
SMILES,IC50 (human MetAP2 enzyme [2]) [nM],IC50 (human MetAP2 enzyme [3]) [nM],effect on diet-induced obesity ([1]; diet-induced obesity in mice),inhibition of angiogenesis (angiogenesis),"food intake, body weight, fat mass, size of adipocytes ([1]; genetically and diet-induced obese mice)"
CO[C@@H]1[C@H](OC(=O)/C=C/C=C/C=C/C=C/C(=O)O)CC[C@]2(CO2)[C@H]1[C@@]1(C)O[C@@H]1CC=C(C)C [fumagillin],,,impair diet-induced obesity,inhibit angiogenesis,
CO[C@@H]1[C@H](OC(=O)/C=C/c2ccc(OCCN(C)C)cc2)CC[C@]2(CO2)[C@H]1[C@@]1(C)O[C@@H]1CC=C(C)C [CKD-732],,,,,"decrease food intake, body weight, fat mass, and the size of adipocytes"
"FC(F)(F)c1cc(-c2cccc3cc[nH]c23)c2cn[nH]c2c1 [Example 76, 4-(1H-indol-7-yl)-6-(trifluoromethyl)-1H-indazole]",39.8,398,,,
"Cc1nc(N2CCOCC2)ccc1-c1cc(C(F)(F)F)cc2[nH]ncc12 [Example 399, 4-(6-methyl-5-(6-(trifluoromethyl)-1H-indazol-4-yl)pyridin-2-yl)morpholine]",7.94,25.1,,,
"COc1cc(C(N)=O)ccc1-c1cc(C(F)(F)F)cc2[nH]ncc12 [Example 306, 3-methoxy-4-(6-(trifluoromethyl)-1H-indazol-4-yl)benzamide]",6.31,15.8,,,
"Cc1nc(C#N)ccc1-c1cc(C(F)(F)F)cc2[nH]ncc12 [Example 377, 6-methyl-5-(6-(trifluoromethyl)-1H-indazol-4-yl)picolinonitrile]",5.01,50.1,,,
"COc1ccc(C(=O)N2CCOCC2)cc1-c1cc(C(F)(F)F)cc2[nH]ncc12 [Example 267, (4-methoxy-3-(6-(trifluoromethyl)-1H-indazol-4-yl)phenyl)(morpholino)methanone]",10,39.8,,,
"O=C(O)Cn1cc(-c2cc(C(F)(F)F)cc3[nH]ncc23)ccc1=O [Example 374, 2-(2-oxo-5-(6-(trifluoromethyl)-1H-indazol-4-yl)pyridin-1(2H)-yl)acetic acid]",63.1,1580,,,
"Cc1nc2cc(-c3cc(C(F)(F)F)cc4[nH]ncc34)cnc2[nH]1 [Example 341, 2-methyl-6-(6-(trifluoromethyl)-1H-indazol-4-yl)-3H-imidazo[4,5-b]pyridine]",7.94,15.8,,,
"Cc1c[nH]c2ncc(-c3cc(C(F)(F)F)cc4[nH]ncc34)cc12 [Example 340, 4-(3-methyl-1H-pyrrolo[2,3-b]pyridin-5-yl)-6-(trifluoromethyl)-1H-indazole]",15.8,100,,,
"CNc1ncc(-c2cc(C(F)(F)F)cc3[nH]ncc23)cn1 [Example 196, N-methyl-5-(6-(trifluoromethyl)-1H-indazol-4-yl)pyrimidin-2-amine]",6.31,63.1,,,
"COc1nc(C#N)ccc1-c1cc(C(F)(F)F)cc2[nH]ncc12 [Example 396, 6-methoxy-5-(6-(trifluoromethyl)-1H-indazol-4-yl)picolinonitrile]",12.6,126,,,
"Cn1cc(-c2cc(C(F)(F)F)cc3[nH]ncc23)c(=O)n(Cc2ccc(F)cc2)c1=O [Example 311, 3-(4-fluorobenzyl)-1-methyl-5-(6-(trifluoromethyl)-1H-indazol-4-yl)pyrimidine-2,4(1H,3H)-dione]",63.1,1000,,,
"Cc1c(C(=O)NCCO)cc(-c2cc(C(F)(F)F)cc3[nH]ncc23)c(=O)n1C [Example 404, N-(2-hydroxyethyl)-1,2-dimethyl-6-oxo-5-(6-(trifluoromethyl)-1H-indazol-4-yl)-1,6-dihydropyridine-3-carboxamide]",12.6,251,,,
"Cn1ncc(-c2cc(C(F)(F)F)cc3[nH]ncc23)c1N [Example 165, 1-methyl-4-(6-(trifluoromethyl)-1H-indazol-4-yl)-1H-pyrazol-5-amine]",63.1,1000,,,

# Further lines, with some results ahead:
IC50 (human MetAP2 enzyme [2]) [nM],IC50 (human MetAP2 enzyme [3]) [nM],SMILES,effect on diet-induced obesity ([1]; diet-induced obesity in mice),inhibition of angiogenesis (angiogenesis),"food intake, body weight, fat mass, size of adipocytes ([1]; genetically and diet-induced obese mice)"
3.98,15.8,"Cc1cc(Cn2nc(C)c(-c3cc(C(F)(F)F)cc4[nH]ncc34)c2CO)on1 (single isomer, unassigned) [Example 412, (3-methyl-1-((3-methylisoxazol-5-yl)methyl)-4-(6-(trifluoromethyl)-1H-indazol-4-yl)-1H-pyrazol-5-yl)methanol]",,,
3.16,39.8,"OCc1ccccc1-c1cc(C(F)(F)F)cc2[nH]ncc12 [Example 12, (2-(6-(trifluoromethyl)-1H-indazol-4-yl)phenyl)methanol]",,,
3.98,63.1,"Cc1nn(CC(N)=O)cc1-c1cc(C(F)(F)F)cc2[nH]ncc12 [Example 274, 2-(3-methyl-4-(6-(trifluoromethyl)-1H-indazol-4-yl)-1H-pyrazol-1-yl)acetamide]",,,
3.16,20,"CN1CCN(C(=O)c2cccc(-c3cc(C(F)(F)F)cc4[nH]ncc34)c2)CC1 [Example 84, (4-methylpiperazin-1-yl)(3-(6-(trifluoromethyl)-1H-indazol-4-yl)phenyl)methanone]",,,
3.98,12.6,"O=C1Cc2cc(-c3cc(C(F)(F)F)cc4[nH]ncc34)ccc2N1 [Example 235, 5-(6-(trifluoromethyl)-1H-indazol-4-yl)indolin-2-one]",,,
3.98,20,"COc1ccc(C(N)=O)cc1-c1cc(C(F)(F)F)cc2[nH]ncc12 [Example 273, 4-methoxy-3-(6-(trifluoromethyl)-1H-indazol-4-yl)benzamide]",,,
